Experimental data: patent US20250034216A1, “STEREOSELECTIVE COVALENT LIGANDS FOR ONCOGENIC AND IMMUNOLOGICAL PROTEINS” (The Scripps Research Institute, priority 2021, published 2025)

Experiments:
DDX49_258 = biological target: T1, DDX49_258 (Homo sapiens, UniProt Q9Y6V7); assay: IA-DTB cysteine engagement; format: binding; conditions: 22Rv1 cells, 5 μM probe, 1 h (FIG. 5B), relative to DMSO
T1 construct: endogenous in cells; host or cells: 22Rv1
How it was run: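 Probe-exposed cells were lysed, IA-DTB-labeled, trypsinized and streptavidin-enriched. Multiplexed TMT quantitation gave engagement ratios versus DMSO, with non-tryptic peptides excluded and intensities normalized to median summed signal.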

[1] = tested on: SIINFEKL presentation in E.G7-Ova cells; assay: FACS analysis with citric acid wash; format: cell-based, mouse; conditions: 4 h treatment, recovery up to 4 h
Protocol: E.G7-Ova cells (2 million/mL) were treated with compounds for 4 hours, washed with PBS, and then washed with 1 mL of 131 mM citric acid for 2 minutes, quenched with 1 mL 66 mM NaH2PO4, and then washed with PBS 3 times. Cells were then resuspended in warm RPMI and allowed to recover for the indicated period, after which cells were washed with PBS and transferred to 96 well plates for staining. Each well was washed with 200 μL PBS, and then stained for 20 minutes with 50 μL of staining solution: 1:1000 fixable near-IR LIVE/DEAD stain (Invitrogen) and 1:200 dilution of anti-SIINFEKL (BioLegend) or anti-Kb (BioLegend) antibody in FACS buffer (2% FBS in PBS supplemented with PenStrep and sterile filtered). Additional wells were used as unstained or singly-stained controls. After staining, cells were washed with PBS, then fixed in 200 μL 4% paraformaldehyde in PBS for 15 minutes. Cells were resuspended in 75 μL FACS buffer and analyzed on a Novocyte flow cytometer. The corresponding data in FIG. 2J are presented as the average percentage of median fluorescence intensity relative to DMSO treated control±SD from n=4 replicates. The corresponding data in FIG. 2K are presented as the average percentage of MFI relative to DMSO treated control±SD from n=3 replicates. Statistical analysis was performed using GraphPad PRISM Version 9.0.0.

SF3B1 C1111 = biological target: T2, SF3B1 C1111 (Homo sapiens, UniProt O75533+Q7RTV0); assay: Parallel reaction monitoring of IA-DTB labeled SF3B1 peptides; format: binding; conditions: 22Rv1 cells
T2 construct: Cysteine engagement data from 22Rv1 cells treated; endogenous in cells; host or cells: 22Rv1
Protocol: Dry peptide samples were reconstituted in a water/acetonitrile (85:15) mixture containing 0.1% formic acid (100 μl) and 15 μl was injected on to an EASY-Spray C18 loading column (5 μm particle size, 100 μm×2 cm; Fisher Scientific, DX164564) and resolved on a custom analytical column (2 μM particle size, 75 μm×15 cm) using a Dionex Ultimate 3000 nano-LC (Thermo Fisher Scientific). Peptides were separated over a 60-min gradient of 15 to 33% acetonitrile (0.1% formic acid) and analyzed on a Q-Exactive instrument (Thermo Fisher Scientific) using a parallel reaction monitoring method targeting the SF3B1 peptide containing C1111 (amino acids 1110-1149, missed tryptic, +3 charge state). Selected precursor ions were isolated and fragmented by high-energy collision dissociation and fragments were detected in the Orbitrap at 17,500 resolution.
Raw data files were uploaded analyzed in Skyline (v.21.1.0.278) to determine the abundance of each peptide in vehicle-treated samples relative to inhibitor-treated samples. Peptide quantification was performed by calculating the sum of the peak areas corresponding to six fragment ions from each peptide. The peptides and fragment ions were preselected from in-house reference spectral libraries acquired in data-dependent acquisition mode to identify authentic spectra for each peptide.

T1 sequence (Q9Y6V7 whole entry): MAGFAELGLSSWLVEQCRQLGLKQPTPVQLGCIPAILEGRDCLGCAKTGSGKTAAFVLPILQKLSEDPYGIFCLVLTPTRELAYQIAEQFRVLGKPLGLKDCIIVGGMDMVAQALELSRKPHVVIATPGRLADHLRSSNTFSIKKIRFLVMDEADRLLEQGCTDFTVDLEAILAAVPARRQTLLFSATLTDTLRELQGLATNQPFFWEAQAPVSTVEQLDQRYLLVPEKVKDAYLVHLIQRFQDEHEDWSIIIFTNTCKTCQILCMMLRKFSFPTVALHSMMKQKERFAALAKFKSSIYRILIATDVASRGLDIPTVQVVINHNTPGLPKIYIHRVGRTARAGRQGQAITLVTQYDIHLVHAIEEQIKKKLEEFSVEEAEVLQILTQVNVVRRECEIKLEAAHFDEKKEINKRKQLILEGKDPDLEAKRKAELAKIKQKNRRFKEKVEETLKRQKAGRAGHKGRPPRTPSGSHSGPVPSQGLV
T2 sequence (O75533 whole entry): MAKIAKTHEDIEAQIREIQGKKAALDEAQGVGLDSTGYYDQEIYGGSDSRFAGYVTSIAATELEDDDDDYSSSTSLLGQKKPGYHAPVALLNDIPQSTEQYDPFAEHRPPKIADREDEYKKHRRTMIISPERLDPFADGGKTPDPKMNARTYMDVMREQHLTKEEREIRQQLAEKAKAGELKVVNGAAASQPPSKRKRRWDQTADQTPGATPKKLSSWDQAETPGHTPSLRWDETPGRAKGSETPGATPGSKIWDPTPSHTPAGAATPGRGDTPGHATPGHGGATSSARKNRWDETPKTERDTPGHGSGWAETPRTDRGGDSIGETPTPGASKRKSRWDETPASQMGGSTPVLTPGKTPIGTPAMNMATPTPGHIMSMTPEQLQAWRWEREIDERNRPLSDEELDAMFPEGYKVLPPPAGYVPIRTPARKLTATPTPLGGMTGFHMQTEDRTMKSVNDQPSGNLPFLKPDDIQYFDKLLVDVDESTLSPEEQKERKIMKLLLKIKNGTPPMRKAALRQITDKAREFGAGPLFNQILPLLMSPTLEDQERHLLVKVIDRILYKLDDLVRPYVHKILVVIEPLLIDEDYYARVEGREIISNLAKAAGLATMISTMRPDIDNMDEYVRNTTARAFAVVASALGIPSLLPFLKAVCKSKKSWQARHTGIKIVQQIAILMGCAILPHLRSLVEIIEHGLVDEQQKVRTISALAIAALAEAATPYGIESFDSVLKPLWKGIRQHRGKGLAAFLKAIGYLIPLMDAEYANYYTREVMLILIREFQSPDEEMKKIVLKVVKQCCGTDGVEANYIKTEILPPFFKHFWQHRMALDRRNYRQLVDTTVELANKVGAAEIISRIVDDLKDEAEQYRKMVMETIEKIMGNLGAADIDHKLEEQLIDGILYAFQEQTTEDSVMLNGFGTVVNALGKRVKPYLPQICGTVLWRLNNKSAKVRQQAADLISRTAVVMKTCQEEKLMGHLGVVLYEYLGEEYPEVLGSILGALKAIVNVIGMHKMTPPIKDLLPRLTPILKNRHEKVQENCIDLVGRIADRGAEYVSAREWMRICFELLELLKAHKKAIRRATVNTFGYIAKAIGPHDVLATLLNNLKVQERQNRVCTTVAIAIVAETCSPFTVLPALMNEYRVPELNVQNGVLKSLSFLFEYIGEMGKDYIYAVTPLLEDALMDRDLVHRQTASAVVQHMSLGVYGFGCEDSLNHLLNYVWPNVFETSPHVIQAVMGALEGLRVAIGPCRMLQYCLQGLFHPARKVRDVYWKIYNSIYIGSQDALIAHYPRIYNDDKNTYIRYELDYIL
T2 sequence (Q7RTV0 whole entry): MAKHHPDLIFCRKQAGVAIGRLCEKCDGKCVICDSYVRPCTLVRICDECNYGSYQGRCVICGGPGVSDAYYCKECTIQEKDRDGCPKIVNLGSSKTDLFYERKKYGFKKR
T2 sequence (Q15393 whole entry partner): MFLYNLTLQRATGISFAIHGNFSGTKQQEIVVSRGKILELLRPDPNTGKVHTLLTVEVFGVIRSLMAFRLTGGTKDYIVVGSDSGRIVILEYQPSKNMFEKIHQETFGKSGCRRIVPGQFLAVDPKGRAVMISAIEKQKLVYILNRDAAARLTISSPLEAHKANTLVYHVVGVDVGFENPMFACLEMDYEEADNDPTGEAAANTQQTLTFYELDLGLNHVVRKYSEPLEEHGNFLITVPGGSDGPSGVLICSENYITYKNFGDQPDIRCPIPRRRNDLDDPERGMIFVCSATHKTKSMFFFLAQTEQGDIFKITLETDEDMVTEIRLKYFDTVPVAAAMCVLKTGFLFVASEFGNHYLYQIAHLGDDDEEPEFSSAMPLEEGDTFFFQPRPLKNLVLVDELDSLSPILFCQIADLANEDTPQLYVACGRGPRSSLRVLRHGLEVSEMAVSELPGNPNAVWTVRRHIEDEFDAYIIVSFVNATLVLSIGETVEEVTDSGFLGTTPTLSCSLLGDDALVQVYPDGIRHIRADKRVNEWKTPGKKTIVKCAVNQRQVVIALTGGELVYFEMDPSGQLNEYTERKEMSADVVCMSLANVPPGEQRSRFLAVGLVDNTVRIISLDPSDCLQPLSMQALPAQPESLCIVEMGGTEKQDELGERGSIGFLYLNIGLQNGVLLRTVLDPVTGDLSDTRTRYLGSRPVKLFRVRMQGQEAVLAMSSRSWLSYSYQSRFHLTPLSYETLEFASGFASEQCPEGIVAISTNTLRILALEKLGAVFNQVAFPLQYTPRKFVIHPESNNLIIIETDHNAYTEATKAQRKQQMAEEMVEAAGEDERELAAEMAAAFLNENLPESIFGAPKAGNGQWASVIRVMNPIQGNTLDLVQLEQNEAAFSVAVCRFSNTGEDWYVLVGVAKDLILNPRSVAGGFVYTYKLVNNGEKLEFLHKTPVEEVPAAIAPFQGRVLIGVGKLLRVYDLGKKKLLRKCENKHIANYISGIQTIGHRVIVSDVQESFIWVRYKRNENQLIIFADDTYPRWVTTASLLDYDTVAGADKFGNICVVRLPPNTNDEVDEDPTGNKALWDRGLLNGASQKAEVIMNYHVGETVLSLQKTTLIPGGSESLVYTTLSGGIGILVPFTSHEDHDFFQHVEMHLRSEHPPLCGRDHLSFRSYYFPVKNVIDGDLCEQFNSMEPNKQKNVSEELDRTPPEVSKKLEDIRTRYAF
T2 sequence (Q9BWJ5 whole entry partner): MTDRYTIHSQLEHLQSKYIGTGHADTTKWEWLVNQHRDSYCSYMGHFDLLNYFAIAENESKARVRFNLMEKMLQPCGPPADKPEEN

Row | % engagement DDX49_258 (DDX49_258) | IA-DTB labeling of other cysteines in SF3B1 (SF3B1 C1111) | IA-DTB reaction with SF3B1 C1111 (SF3B1 C1111; 20 μM, 24 h) | SMILES | SIINFEKL presentation after acid wash [1]
1 | 5.50% |  |  | C=CC(=O)N1C[C@H](c2ccc(Br)cc2)[C@@H]1C(=O)Nc1cccc2cccnc12 [MY-1B, (2R,3S)-1-acryloyl-3-(4-bromophenyl)-N-(quinolin-8-yl)azetidine-2-carboxamide] | 
2 | 82.25% |  |  | CC#CC(=O)N1C[C@H](c2ccc(Br)cc2)[C@@H]1C(=O)Nc1cccc2cccnc12 [MY-45B, (2R,3S)-3-(4-bromophenyl)-1-(but-2-ynoyl)-N-(quinolin-8-yl)azetidine-2-carboxamide] | time- and concentration-dependent reduction in SIINFEKL presentation
3 |  | did not affect other cysteines in SF3B1 | stereoselectively blocked | C=CC(=O)N1[C@H](c2ccc3c(c2)OCO3)c2[nH]c3ccccc3c2C[C@H]1C(=O)N1CCOCC1 [WX-02-23, 1-((1R,3S)-1-(benzo[d][1,3]dioxol-S-yl)-3-(morpholine-4-carbonyl)-1,3,4,9-tetrahydro-2H-pyrido [3,4-b]indol-2-yl)prop-2-en-1-one] | 
